In patent US20260159520A1, “HETEROBIFUNCTIONAL COMPOUNDS AND METHODS OF TREATING DISEASE” (Halda Therapeutics OpCo, Inc., priority 2022, published 2026):

How the values were obtained:
Format in all cases: cell-based
[1] = test system: T-Rex 293 cell line SC3 cells having increased expression of androgen receptor protein; assay: Cellular growth inhibition, T-Rex 293 SC3 cells with doxycycline (increased androgen receptor expression); details: with 10 ng/mL doxycycline (increased androgen receptor), 72 hours, CellTiter-Glo 2.0
Description: (§1) The following types of cells were prepared for this experiment: (i) a T-Rex 293 cell line having increased expression of androgen receptor protein due to exposure to doxycycline and (ii) a T-Rex 293 cell line lacking increased expression of androgen receptor protein. Ability of the test compounds to inhibit proliferation of the foregoing cell types was evaluated according to the procedures set forth below.
(§2) The doxycycline-inducible androgen receptor protein expressing cell line was established using the following protocol: T-Rex 293 cells were purchased from Invitrogen (Cat #R71007) and transfected using Lipofectamine 2000 with the wild-type androgen receptor protein sequence cloned into the pcDNA4/TO vector. Transfected cells were selected using 400 μg/mL Zeocin (Invitrogen Cat #R25001). Following selection, single clones were raised and maintained in Dulbecco's Modified Eagle Medium (DMEM) supplemented with 10% w/w Tetracycline-free fetal bovine serum (FBS) and 250 μg/mL Zeocin. Clones were analyzed for expression of androgen receptor protein in the presence and absence of 10 ng/mL doxycycline (Sigma Cat #D9891), and a single doxycycline-inducible clone (hereinafter “SC3”) was selected for use in downstream assays.
(§3) The SC3 cells were seeded on poly-D-lysine coated, black clear-bottom 384-well plates at 2500/well, in 25 μL Phenol Red Free Dulbecco's Modified Eagle Medium (DMEM) supplemented with 10% w/w charcoal-dextran treated fetal bovine serum (FBS) and 1% w/w pen-strep, with or without 10 ng/mL doxycycline. Pen-Strep is a commercially available mixture of penicillin G and streptomycin, which is used in mammalian cell culture media to prevent bacterial contamination. Phenol Red Free Dulbecco's Modified Eagle Medium (DMEM) supplemented with 10% w/w charcoal-dextran treated fetal bovine serum (FBS) and 1% w/w pen-strep, with or without 10 ng/mL doxycycline is herein referred to as Treatment Medium. Following seeding of cells in the plates, the plates were spun at 300×g for 30 seconds, then equilibrated to room temperature for 30 minutes, and then deposited in a humidified tissue culture incubator maintained at 37° C. with 5% CO2.
(§4) At 24 hours after seeding of the cells, dilutions of test compound were prepared in DMSO and dissolved in Treatment Medium, to achieve a final DMSO concentration of 0.5% w/w, thereby providing the Test Compound Solution. A 25 μL aliquot of the Test Compound Solution was added to cells in the well plates. An equal volume of a solution containing DMSO and Treatment Medium was used as a negative control. Following treatment of cells with Test Compound Solution or said equal volume of a solution containing DMSO and Treatment Medium, the plates were spun at 300×g for 30 seconds, and then left in an incubator for 72 hours.
(§5) At the end of the treatment duration, cell viability was quantified with CellTiter-Glo 2.0 reagent (Promega Cat #G9243). For this purpose, plates were equilibrated to room temperature for 30 minutes, and then 25 μL of CellTiter-Glo 2.0 reagent was added to cells in the plate wells. Plates were then agitated on a shaker for two minutes at 500 rpm and subsequently incubated at room temperature for 10 minutes. Following incubation, the plates were spun at 3000×g for 30 seconds, then sealed with an optical adhesive cover, and luminescence readings were measured with an EnVision Plate Reader.
(§6) Data was normalized using zero luminescence for baseline. A four-parameter non-linear regression curve fit was applied to dose-response data in GraphPad Prism data analysis software to determine the half-maximal growth inhibitory concentration (GI50) for each test compound.

[2] = test system: T-Rex 293 cell line SC3 cells lacking increased expression of androgen receptor protein; assay: Cellular growth inhibition, T-Rex 293 SC3 cells without doxycycline; details: not exposed to doxycycline, 72 hours, CellTiter-Glo 2.0
Description: as §1, §2, §3, §4, §5, §6

VCaP cells = assay: Cellular growth inhibition assay for VCaP cells; details: Homo sapiens, 72 hours, CellTiter-Glo 2.0
Description: VCaP cells were purchased from American Type Cell Culture (ATCC Cat #CRL2876) and then seeded on poly-D-lysine coated, black clear-bottom 384-well plates at 5000/well in 25 μL Dulbecco's Modified Eagle Medium (DMEM) supplemented with 10% w/w Fetal bovine serum (FBS) and 1% w/w Pen-Strep. Pen-Strep is a commercially available mixture of penicillin G and streptomycin, which is used in mammalian cell culture media to prevent bacterial contamination. Dulbecco's Modified Eagle Medium (DMEM) supplemented with 10% w/w fetal bovine serum (FBS) and 1% w/w Pen-Strep is herein referred to as Treatment Medium. Following seeding of cells in the plates, the plates were spun at 300×g for 30 seconds, then equilibrated to room temperature for 30 minutes, and then deposited in a humidified tissue culture incubator maintained at 37° C. with 5% CO2.
as §4
as §5, with “Reader. Data was normalized using zero luminescence for baseline.” for “Reader.”
A four-parameter non-linear regression curve fit was applied to dose-response data in GraphPad Prism data analysis software to determine the half-maximal growth inhibitory concentration (GI50) for each test compound.

| SMILES | GI50 (VCaP cells) [nM] | GI50 [1] [nM] | GI50 [2] [nM] |
| --- | --- | --- | --- |
| CCc1cnn2c(NCc3ccc(OCCCC4CCN(CC5CCN(c6ncc(C(=O)N[C@H]7C(C)(C)[C@H](Oc8ccc(C#N)c(Cl)c8)C7(C)C)cn6)CC5)CC4)nc3)cc(N3CCCC[C@H]3CCO)nc12 [Compound I-53] |  | < 100 | 100 to 1000 |
| CCc1cnn2c(CCc3ccc(OCCCCCCOC4CCN(c5ncc(C(=O)N[C@H]6C(C)(C)[C@H](Oc7ccc(C#N)c(Cl)c7)C6(C)C)cn5)CC4)nc3)cc(N3CCCC[C@H]3CCO)nc12 [Compound I-29] |  | 100 to 1000 | > 3500 |
| CCc1cnn2c(NCc3ccc(OCCCOCCCCOC4CCN(c5ncc(C(=O)N[C@H]6C(C)(C)[C@H](Oc7ccc(C#N)c(Cl)c7)C6(C)C)cn5)CC4)nc3)cc(N3CCCC[C@H]3CCO)nc12 [Compound I-39] | > 3500 | < 100 | > 3500 |
| CCc1cnn2c(NCc3ccc(OCCCCCOC4CCN(c5ncc(C(=O)N[C@H]6C(C)(C)[C@H](Oc7ccc(C#N)c(Cl)c7)C6(C)C)cn5)CC4)nc3)cc(N3CCCC[C@H]3CCO)nc12 [Compound I-28] |  | 100 to 1000 | > 3500 |
| CCc1cnn2c(NCc3ccc(OCCCCCCCOC4CCN(c5ncc(C(=O)N[C@H]6C(C)(C)[C@H](Oc7ccc(C#N)c(Cl)c7)C6(C)C)cn5)CC4)nc3)cc(N3CCCC[C@H]3CCO)nc12 [Compound I-30] |  | > 3500 | > 3500 |
| CCc1cnn2c(NCc3ccc(OCCCOC4CCN(c5ncc(C(=O)N[C@H]6C(C)(C)[C@H](Oc7ccc(C#N)c(Cl)c7)C6(C)C)cn5)CC4)nc3)cc(N3CCCC[C@H]3CCO)nc12 [Compound I-26] |  | 1000 to 3500 | > 3500 |
| CCc1cnn2c(NCc3ccc(OCCOCCCCCOC4CCN(c5ncc(C(=O)N[C@H]6C(C)(C)[C@H](Oc7ccc(C#N)c(Cl)c7)C6(C)C)cn5)CC4)nc3)cc(N3CCCC[C@H]3CCO)nc12 [Compound I-40] | > 3500 | < 100 | > 3500 |
| CC1(C)[C@H](NC(=O)c2cnc(N3CCC(OCCOCCOCCOCCOCCOCCOCCNS(=O)(=O)c4ccc(Nc5ncc(Br)c(Nc6cccc(F)c6C(N)=O)n5)cc4)CC3)nc2)C(C)(C)[C@H]1Oc1ccc(C#N)c(Cl)c1 [Compound I-16] |  | > 3500 | > 3500 |
| CN(CCOCCOCCOCCOCCOCCOCCNS(=O)(=O)c1ccc(Nc2ncc(Br)c(Nc3cccc(F)c3C(N)=O)n2)cc1)c1ncc(C(=O)N[C@H]2C(C)(C)[C@H](Oc3ccc(C#N)c(Cl)c3)C2(C)C)cn1 [Compound I-21] |  | > 3500 | > 3500 |

Second part, led by results:

| GI50 (VCaP cells) [nM] | SMILES | GI50 [1] [nM] | GI50 [2] [nM] |
| --- | --- | --- | --- |
| 100 to 1000 | CCc1cnn2c(NCc3ccc(OCCOCCCOC4CCN(c5ncc(C(=O)N[C@H]6C(C)(C)[C@H](Oc7ccc(C#N)c(Cl)c7)C6(C)C)cn5)CC4)nc3)cc(N3CCCC[C@H]3CCO)nc12 [Compound I-33] | < 100 | 1000 to 3500 |
| 100 to 1000 | CCc1cnn2c(NCc3ccc(OCCCN4CCN(CC5CCN(c6ccc(C(=O)N[C@H]7C(C)(C)[C@H](Oc8ccc(C#N)c(Cl)c8)C7(C)C)nc6)CC5)CC4)nc3)cc(N3CCCC[C@@H]3CCO)nc12 [Compound I-57, N-((1r,3r)-3-(3-chloro-4-cyanophenoxy)-2,2,4,4-tetramethylcyclobutyl)-5-(4-((4-(3-((5-(((3-ethyl-5-((R)-2-(2-hydroxyethyl)piperidin-1-yl)pyrazolo[1,5-a]pyrimidin-7-yl)amino)methyl)pyridin-2-yl)oxy)propyl)piperazin-1-yl)methyl)piperidin-1-yl)picolinamide] | 100 to 1000 | 100 to 1000 |
| 100 to 1000 | CCc1cnn2c(NCc3ccc(OCCCOCCCOC4CCN(c5ncc(C(=O)N[C@H]6C(C)(C)[C@H](Oc7ccc(C#N)c(Cl)c7)C6(C)C)cn5)CC4)nc3)cc(N3CCCC[C@H]3CCO)nc12 [Compound I-35] | < 100 | 100 to 1000 |
| < 100 | CCc1cnn2c(NCc3ccc(OCCCOCCOC4CCN(c5ncc(C(=O)N[C@H]6C(C)(C)[C@H](Oc7ccc(C#N)c(Cl)c7)C6(C)C)cn5)CC4)nc3)cc(N3CCCC[C@H]3CCO)nc12 [Compound I-32] | < 100 | 1000 to 3500 |
| < 100 | CCc1cnn2c(NCc3ccc(OCCOCCCCOC4CCN(c5ncc(C(=O)N[C@H]6C(C)(C)[C@H](Oc7ccc(C#N)c(Cl)c7)C6(C)C)cn5)CC4)nc3)cc(N3CCCC[C@H]3CCO)nc12 [Compound I-36] | < 100 | > 3500 |
| > 3500 | CCc1cnn2c(NCc3ccc(OCCCCCOCCOC4CCN(c5ncc(C(=O)N[C@H]6C(C)(C)[C@H](Oc7ccc(C#N)c(Cl)c7)C6(C)C)cn5)CC4)nc3)cc(N3CCCC[C@H]3CCO)nc12 [Compound I-37] | 100 to 1000 | > 3500 |
| 100 to 1000 | CCc1cnn2c(NCc3ccc(OCCCN4CCN(CC5CCN(c6cnc(C(=O)N[C@H]7C(C)(C)[C@H](Oc8ccc(C#N)c(Cl)c8)C7(C)C)cn6)CC5)CC4)nc3)cc(N3CCCC[C@@H]3CCO)nc12 [Compound I-56, N-((1r,3r)-3-(3-chloro-4-cyanophenoxy)-2,2,4,4-tetramethylcyclobutyl)-5-(4-((4-(3-((5-(((3-ethyl-5-((R)-2-(2-hydroxyethyl)piperidin-1-yl)pyrazolo[1,5-a]pyrimidin-7-yl)amino)methyl)pyridin-2-yl)oxy)propyl)piperazin-1-yl)methyl)piperidin-1-yl)pyrazine-2-carboxamide] | 100 to 1000 | 100 to 1000 |
| 100 to 1000 | CCc1cnn2c(NCc3ccc(OCCCCOCCCOC4CCN(c5ncc(C(=O)N[C@H]6C(C)(C)[C@H](Oc7ccc(C#N)c(Cl)c7)C6(C)C)cn5)CC4)nc3)cc(N3CCCC[C@H]3CCO)nc12 [Compound I-38] | 100 to 1000 | > 3500 |
